Data taken from article PMC8773328, “Antioxidative and Analgesic Effects of Naringin through Selective Inhibition of Transient Receptor Potential Vanilloid Member 1” (Antioxidants, 2021).

How the values were obtained:
Assay type in all cases: cell-based
[1] = molecular target: T1, Transient receptor potential vanilloid member 1 (TRPV1) (Rattus norvegicus, UniProt O35433); experiment: two-electrode voltage clamp in Xenopus oocytes expressing TRPV1, inhibition of current (reference antagonist)
T1 construct: Rat TRPV1 cDNA (NM_031982)

[2] = molecular target: T2, Transient receptor potential vanilloid member 1 (TRPV1) (Rattus norvegicus, UniProt O35433, N628A); experiment: two-electrode voltage clamp in Xenopus oocytes expressing mutant TRPV1, inhibition of capsaicin-induced current (reduced maximum inhibition); conditions: read-out: Hill Equation / y = Vmin + (Vmax - Vmin) × x^n/(k^n x^n) / Value
T2 construct: Rat TRPV1 cDNA (NM_031982), N628A

[3] = molecular target: T1, Transient receptor potential vanilloid member 1 (TRPV1); experiment: two-electrode voltage clamp in Xenopus oocytes expressing TRPV1, inhibition of capsaicin-induced current

T1 sequence (O35433 whole entry): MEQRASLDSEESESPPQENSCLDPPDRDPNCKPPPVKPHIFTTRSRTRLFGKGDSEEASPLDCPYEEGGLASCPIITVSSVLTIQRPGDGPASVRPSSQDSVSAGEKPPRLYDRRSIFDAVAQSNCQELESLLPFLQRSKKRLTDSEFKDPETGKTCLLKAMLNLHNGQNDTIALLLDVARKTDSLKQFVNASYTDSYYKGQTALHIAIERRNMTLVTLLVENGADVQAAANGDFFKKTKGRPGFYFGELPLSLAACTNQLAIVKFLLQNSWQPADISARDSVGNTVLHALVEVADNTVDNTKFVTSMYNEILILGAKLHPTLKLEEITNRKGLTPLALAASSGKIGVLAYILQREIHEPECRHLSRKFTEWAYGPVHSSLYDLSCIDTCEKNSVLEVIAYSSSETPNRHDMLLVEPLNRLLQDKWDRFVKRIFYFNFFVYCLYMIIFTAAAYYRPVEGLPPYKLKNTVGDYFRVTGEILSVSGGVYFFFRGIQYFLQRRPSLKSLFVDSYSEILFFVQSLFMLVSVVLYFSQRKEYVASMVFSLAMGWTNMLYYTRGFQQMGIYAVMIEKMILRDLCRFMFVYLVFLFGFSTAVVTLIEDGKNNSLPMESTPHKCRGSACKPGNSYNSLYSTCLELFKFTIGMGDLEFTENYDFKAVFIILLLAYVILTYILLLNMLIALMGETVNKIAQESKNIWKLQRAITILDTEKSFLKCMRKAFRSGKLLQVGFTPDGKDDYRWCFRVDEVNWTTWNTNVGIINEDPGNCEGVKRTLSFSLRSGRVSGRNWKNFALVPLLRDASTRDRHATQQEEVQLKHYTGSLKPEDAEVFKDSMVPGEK
T2 sequence (O35433 whole entry N628A): as the sequence (O35433 whole entry) above, with N628A counted along it

IC50 [1] | IC50 [2] | IC50 [3] | SMILES
10.1 µM |  |  | Oc1cc2c(cc1O)CN(C(=S)NCCc1ccc(Cl)cc1)CCC2 [capsazepine]
 | 24.2 µM | 33.3 µM | C[C@@H]1O[C@@H](O[C@H]2[C@H](Oc3cc(O)c4c(c3)O[C@H](c3ccc(O)cc3)CC4=O)O[C@H](CO)[C@@H](O)[C@@H]2O)[C@H](O)[C@H](O)[C@H]1O [naringin]
